# ChEMBL document CHEMBL5233266, “β-Carboline as a Privileged Scaffold for Multitarget Strategies in Alzheimer's Disease Therapy” (J Med Chem, 2021)
# How the values were obtained:
# [1] = molecular target: cGMP-specific 3',5'-cyclic phosphodiesterase (Homo sapiens, UniProt O76074); test: Inhibition of PDE5 (unknown origin)
# Histone deacetylase 1 = Histone deacetylase 1 (Homo sapiens, UniProt Q13547); test: Inhibition of HDAC1 (unknown origin)
# Histone deacetylase 2 = Histone deacetylase 2 (Homo sapiens, UniProt Q92769); test: Inhibition of HDAC2 (unknown origin)
# Sequence of Histone deacetylase 2 (Q92769 whole entry): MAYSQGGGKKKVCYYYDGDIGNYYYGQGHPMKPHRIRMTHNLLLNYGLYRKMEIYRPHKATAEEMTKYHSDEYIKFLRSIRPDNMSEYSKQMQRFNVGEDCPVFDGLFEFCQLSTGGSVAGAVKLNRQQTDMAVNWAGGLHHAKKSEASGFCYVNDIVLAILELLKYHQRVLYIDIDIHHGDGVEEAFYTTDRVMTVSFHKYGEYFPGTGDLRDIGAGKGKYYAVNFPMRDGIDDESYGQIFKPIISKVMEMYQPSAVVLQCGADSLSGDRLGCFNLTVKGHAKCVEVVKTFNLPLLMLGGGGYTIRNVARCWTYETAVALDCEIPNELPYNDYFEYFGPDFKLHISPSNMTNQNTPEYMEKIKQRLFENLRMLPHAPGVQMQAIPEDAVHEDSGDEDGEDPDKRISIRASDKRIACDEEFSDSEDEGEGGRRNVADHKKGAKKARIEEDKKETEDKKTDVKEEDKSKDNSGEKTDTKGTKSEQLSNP
# [2] = molecular target: T1, Protein deacetylase HDAC6 (Homo sapiens, UniProt Q9UBN7); test: Inhibition of HDAC6 (unknown origin)
# T1 sequence (Q9UBN7 whole entry): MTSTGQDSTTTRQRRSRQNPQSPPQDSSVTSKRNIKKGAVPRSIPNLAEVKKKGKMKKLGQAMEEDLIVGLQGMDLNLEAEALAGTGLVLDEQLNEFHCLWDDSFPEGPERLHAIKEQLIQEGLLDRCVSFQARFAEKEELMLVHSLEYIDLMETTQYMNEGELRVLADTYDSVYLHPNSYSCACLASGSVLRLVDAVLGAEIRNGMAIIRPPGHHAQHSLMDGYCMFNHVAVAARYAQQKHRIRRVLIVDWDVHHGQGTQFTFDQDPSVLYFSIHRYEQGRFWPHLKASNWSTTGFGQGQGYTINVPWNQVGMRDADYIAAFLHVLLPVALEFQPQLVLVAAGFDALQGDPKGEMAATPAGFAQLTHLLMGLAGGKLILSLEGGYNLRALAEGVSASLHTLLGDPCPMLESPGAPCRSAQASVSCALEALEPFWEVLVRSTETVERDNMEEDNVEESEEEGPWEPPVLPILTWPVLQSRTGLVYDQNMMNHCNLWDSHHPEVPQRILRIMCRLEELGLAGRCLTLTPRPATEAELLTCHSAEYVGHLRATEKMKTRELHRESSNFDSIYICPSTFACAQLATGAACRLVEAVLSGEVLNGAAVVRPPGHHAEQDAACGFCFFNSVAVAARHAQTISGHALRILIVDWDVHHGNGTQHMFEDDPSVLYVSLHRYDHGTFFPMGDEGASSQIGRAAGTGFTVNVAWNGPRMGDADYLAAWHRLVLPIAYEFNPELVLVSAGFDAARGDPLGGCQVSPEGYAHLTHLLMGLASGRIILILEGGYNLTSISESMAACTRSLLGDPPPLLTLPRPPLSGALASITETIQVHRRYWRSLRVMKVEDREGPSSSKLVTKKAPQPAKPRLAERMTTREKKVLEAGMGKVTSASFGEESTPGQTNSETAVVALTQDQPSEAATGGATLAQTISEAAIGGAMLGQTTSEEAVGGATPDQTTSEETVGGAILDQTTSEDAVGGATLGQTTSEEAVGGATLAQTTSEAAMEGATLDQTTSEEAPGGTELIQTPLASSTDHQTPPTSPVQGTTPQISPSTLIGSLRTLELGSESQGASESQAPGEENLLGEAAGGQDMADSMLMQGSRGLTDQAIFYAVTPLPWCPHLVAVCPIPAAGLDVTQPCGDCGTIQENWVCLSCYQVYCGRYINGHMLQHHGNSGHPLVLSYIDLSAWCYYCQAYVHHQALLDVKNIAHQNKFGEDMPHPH
# Beta-secretase 1 = Beta-secretase 1 (Homo sapiens, UniProt P56817); test: Inhibition of BACE1 (unknown origin) expressed in HEK293 cells by FRET assay; assay type: cell-based
# [3] = molecular target: 5-hydroxytryptamine receptor 2A (Rattus norvegicus, UniProt P14842); test: Displacement of [3H]-ketanserin from rat 5-HT2A expressed in mouse NIH/3T3 cells assessed as inhibition constant by Cheng-Prusoff equation analysis; assay type: cell-based
# Sequence of 5-hydroxytryptamine receptor 2A (P14842 whole entry): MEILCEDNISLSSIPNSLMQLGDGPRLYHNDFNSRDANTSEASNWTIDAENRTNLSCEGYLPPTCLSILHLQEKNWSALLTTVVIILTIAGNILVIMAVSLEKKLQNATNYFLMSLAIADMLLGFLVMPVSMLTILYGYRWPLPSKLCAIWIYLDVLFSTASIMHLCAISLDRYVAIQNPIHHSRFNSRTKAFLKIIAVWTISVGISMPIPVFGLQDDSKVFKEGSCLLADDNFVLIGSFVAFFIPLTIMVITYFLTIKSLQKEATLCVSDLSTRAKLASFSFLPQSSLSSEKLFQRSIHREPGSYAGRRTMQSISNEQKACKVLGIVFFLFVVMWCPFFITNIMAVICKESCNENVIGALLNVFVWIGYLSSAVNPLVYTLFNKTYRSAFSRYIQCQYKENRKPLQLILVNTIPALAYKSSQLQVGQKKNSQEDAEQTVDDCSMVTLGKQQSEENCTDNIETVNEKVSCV
# [4] = molecular target: 5-hydroxytryptamine receptor 2C (Rattus norvegicus, UniProt P08909); test: Displacement of [3H]-ketanserin from rat 5-HT2C expressed in mouse NIH/3T3 cells assessed as inhibition constant by Cheng-Prusoff equation analysis; assay type: cell-based
# [5] = molecular target: 5-hydroxytryptamine receptor 2B (Rattus norvegicus, UniProt P30994); test: Displacement of [3H]-ketanserin from rat 5-HT2B expressed in mouse NIH/3T3 cells assessed as inhibition constant by Cheng-Prusoff equation analysis; assay type: cell-based
# Sequence of 5-hydroxytryptamine receptor 2B (Rattus norvegicus, UniProt P30994) (P30994 whole entry): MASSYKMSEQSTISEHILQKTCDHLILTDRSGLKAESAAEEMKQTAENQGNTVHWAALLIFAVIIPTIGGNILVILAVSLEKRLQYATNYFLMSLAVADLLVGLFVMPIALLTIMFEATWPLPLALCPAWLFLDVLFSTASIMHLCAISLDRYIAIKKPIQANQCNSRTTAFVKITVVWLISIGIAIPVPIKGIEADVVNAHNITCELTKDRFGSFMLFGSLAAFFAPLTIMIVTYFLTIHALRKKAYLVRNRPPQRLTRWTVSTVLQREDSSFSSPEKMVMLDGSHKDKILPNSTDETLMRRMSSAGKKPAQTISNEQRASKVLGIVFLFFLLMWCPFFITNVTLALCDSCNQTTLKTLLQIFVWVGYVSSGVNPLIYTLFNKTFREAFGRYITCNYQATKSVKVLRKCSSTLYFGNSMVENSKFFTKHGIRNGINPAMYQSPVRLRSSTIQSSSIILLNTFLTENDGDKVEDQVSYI
# [6] = molecular target: 5-hydroxytryptamine receptor 2B (Homo sapiens, UniProt P41595); test: Binding affinity to 5-HT2B (unknown origin) assessed as equilibrium binding constant
# Sequence of 5-hydroxytryptamine receptor 2B (Homo sapiens, UniProt P41595) (P41595 whole entry): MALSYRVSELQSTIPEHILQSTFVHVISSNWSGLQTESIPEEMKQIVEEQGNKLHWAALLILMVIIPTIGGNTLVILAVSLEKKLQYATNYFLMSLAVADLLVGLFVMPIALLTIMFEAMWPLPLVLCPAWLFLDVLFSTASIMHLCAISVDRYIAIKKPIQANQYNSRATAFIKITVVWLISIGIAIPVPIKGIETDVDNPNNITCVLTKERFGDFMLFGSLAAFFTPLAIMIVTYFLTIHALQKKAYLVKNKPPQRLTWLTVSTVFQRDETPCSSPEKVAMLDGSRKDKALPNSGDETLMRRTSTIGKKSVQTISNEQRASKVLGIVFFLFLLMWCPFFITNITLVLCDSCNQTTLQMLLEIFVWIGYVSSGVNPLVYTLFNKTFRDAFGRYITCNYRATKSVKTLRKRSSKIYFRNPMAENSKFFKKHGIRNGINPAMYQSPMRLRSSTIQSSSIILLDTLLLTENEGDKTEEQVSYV
# [7] = molecular target: T2, Gamma-aminobutyric acid receptor subunit alpha-1 (Homo sapiens, UniProt P14867); test: Binding affinity to human recombinant GABAA alpha1 receptor assessed as inhibition constant incubated for 1 hrs by liquid scintillation counting analysis
# T2 sequence (P14867 whole entry): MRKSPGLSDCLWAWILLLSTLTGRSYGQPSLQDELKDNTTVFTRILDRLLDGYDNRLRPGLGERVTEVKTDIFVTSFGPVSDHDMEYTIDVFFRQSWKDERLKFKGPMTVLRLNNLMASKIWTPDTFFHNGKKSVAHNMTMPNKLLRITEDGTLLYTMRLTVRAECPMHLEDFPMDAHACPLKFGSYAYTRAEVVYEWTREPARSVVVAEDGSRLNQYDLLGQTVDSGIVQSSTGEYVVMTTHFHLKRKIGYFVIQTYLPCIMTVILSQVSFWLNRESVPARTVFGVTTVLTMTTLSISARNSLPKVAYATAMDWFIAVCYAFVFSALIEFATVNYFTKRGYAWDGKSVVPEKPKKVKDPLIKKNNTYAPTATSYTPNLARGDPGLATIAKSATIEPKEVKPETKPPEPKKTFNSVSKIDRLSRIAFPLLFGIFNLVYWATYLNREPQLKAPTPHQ
# [8] = molecular target: T3, Gamma-aminobutyric acid receptor subunit alpha-2 (Homo sapiens, UniProt P47869); test: Binding affinity to human recombinant GABAA alpha2 receptor assessed as inhibition constant incubated for 1 hrs by liquid scintillation counting analysis
# T3 sequence (P47869 whole entry): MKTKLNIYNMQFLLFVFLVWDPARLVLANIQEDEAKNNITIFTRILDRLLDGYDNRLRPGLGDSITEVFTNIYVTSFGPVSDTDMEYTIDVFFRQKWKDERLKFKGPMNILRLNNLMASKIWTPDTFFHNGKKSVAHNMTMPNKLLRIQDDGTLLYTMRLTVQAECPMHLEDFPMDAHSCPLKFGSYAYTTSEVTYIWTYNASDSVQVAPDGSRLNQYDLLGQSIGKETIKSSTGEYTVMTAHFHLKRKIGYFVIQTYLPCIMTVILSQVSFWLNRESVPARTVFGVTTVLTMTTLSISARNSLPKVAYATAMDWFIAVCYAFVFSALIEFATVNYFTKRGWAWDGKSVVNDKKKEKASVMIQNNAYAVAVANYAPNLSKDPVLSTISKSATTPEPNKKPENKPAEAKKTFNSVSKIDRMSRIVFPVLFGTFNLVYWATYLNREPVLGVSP
# [9] = molecular target: T4, Gamma-aminobutyric acid receptor subunit alpha-3 (Homo sapiens, UniProt P34903); test: Binding affinity to human recombinant GABAA alpha3 receptor assessed as inhibition constant incubated for 1 hrs by liquid scintillation counting analysis
# T4 sequence (P34903 whole entry): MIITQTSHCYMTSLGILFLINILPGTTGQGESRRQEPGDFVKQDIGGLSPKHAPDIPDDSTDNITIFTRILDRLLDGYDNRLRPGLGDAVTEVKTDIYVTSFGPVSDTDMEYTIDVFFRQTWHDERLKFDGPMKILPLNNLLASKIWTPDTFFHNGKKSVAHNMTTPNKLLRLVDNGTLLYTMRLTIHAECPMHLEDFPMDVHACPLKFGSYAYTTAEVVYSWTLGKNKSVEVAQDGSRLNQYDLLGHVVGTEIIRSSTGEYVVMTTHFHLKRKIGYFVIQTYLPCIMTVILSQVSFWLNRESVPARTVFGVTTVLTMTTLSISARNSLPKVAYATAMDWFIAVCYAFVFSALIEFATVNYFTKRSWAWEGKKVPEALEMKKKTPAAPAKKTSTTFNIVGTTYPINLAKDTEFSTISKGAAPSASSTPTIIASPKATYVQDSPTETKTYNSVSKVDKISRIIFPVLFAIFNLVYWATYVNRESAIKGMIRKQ
# [10] = molecular target: T5, Gamma-aminobutyric acid receptor subunit alpha-5 (Homo sapiens, UniProt P31644); test: Binding affinity to human recombinant GABAA alpha5 receptor assessed as inhibition constant incubated for 1 hrs by liquid scintillation counting analysis
# T5 sequence (P31644 whole entry): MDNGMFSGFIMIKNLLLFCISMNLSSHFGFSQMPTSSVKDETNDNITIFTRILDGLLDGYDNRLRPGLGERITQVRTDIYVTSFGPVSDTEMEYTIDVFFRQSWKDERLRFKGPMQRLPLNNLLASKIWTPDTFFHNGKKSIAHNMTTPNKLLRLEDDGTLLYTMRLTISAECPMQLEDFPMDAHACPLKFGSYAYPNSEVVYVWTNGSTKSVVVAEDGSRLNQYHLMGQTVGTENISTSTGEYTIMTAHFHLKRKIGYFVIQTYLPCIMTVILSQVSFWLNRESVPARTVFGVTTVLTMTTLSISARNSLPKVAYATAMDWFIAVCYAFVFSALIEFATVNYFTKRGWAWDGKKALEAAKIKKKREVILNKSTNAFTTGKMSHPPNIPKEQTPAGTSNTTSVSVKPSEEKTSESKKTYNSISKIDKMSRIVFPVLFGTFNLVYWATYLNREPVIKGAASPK
# [11] = molecular target: T6, Gamma-aminobutyric acid receptor subunit alpha-6 (Homo sapiens, UniProt Q16445); test: Binding affinity to human recombinant GABAA alpha6 receptor assessed as inhibition constant incubated for 1 hrs by liquid scintillation counting analysis
# T6 sequence (Q16445 whole entry): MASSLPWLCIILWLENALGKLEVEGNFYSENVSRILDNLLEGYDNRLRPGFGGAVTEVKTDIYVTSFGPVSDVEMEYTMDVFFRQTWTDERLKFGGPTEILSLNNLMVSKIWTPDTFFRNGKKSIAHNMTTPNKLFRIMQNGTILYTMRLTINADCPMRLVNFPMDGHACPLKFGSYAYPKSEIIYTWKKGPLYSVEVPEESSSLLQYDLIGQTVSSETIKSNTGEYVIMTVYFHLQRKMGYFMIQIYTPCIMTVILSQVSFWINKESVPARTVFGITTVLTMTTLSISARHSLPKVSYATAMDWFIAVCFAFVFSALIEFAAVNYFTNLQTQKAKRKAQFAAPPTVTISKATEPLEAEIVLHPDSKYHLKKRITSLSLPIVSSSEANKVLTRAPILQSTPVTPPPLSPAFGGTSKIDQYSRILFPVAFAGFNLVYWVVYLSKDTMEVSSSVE
# [12] = molecular target: T2, Gamma-aminobutyric acid receptor subunit alpha-1; test: Inhibition of GABAA alpha1 receptor (unknown origin)
# [13] = molecular target: T3, Gamma-aminobutyric acid receptor subunit alpha-2; test: Inhibition of GABAA alpha2 receptor (unknown origin)
# [14] = molecular target: T4, Gamma-aminobutyric acid receptor subunit alpha-3; test: Inhibition of GABAA alpha3 receptor (unknown origin)
# [15] = molecular target: T5, Gamma-aminobutyric acid receptor subunit alpha-5; test: Inhibition of GABAA alpha5 receptor (unknown origin)
# [16] = molecular target: T6, Gamma-aminobutyric acid receptor subunit alpha-6; test: Binding affinity to GABAA alpha6 receptor (unknown origin) assessed as inhibition constant
# Cholinesterase [17] = molecular target: T7, Cholinesterase (Homo sapiens, UniProt P06276); test: Inhibition of BuChE (unknown origin) assessed as inhibition of A-beta aggregation at 100 uM relative to control
# T7 sequence (P06276 whole entry): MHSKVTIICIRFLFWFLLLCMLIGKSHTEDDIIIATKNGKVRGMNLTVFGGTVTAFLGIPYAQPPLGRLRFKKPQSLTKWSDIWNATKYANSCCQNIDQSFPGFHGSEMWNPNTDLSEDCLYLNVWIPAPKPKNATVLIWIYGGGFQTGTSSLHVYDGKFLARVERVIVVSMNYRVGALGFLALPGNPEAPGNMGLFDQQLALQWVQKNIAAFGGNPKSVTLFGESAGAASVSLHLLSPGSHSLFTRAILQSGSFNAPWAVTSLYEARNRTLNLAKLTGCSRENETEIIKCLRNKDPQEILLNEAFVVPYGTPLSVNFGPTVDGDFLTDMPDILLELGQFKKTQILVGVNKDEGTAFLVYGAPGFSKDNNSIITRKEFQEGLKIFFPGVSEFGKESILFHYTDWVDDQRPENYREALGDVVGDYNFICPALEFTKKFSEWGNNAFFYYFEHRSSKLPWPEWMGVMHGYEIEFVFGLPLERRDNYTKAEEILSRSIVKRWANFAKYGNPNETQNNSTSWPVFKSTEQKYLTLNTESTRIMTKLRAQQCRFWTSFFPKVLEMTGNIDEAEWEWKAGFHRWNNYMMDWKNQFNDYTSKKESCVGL
# Acetylcholinesterase = Acetylcholinesterase (Homo sapiens, UniProt P22303); test: Inhibition of AChE (unknown origin)
# Sequence of Acetylcholinesterase (P22303 whole entry): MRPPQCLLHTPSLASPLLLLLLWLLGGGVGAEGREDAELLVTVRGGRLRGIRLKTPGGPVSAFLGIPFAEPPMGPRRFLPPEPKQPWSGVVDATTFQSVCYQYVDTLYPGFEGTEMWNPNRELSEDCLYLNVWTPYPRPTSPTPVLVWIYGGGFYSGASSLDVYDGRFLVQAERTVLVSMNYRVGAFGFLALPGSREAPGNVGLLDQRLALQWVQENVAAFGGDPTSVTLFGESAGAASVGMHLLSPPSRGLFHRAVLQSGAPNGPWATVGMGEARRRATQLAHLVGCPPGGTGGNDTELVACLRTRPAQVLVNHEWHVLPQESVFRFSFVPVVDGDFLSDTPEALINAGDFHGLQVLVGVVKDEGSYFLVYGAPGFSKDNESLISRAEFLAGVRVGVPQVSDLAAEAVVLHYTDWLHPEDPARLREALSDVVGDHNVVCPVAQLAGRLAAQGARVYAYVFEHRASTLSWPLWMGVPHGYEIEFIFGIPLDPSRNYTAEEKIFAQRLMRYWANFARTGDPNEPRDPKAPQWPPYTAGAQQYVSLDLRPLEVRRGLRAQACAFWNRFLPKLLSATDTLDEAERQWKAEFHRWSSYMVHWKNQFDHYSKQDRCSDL
# Cholinesterase [18] = molecular target: T7, Cholinesterase; test: Inhibition of BuChE (unknown origin)
# [19] = molecular target: Amyloid-beta precursor protein (Homo sapiens) (UniProt P05067); test: Inhibition of amyloid beta (unknown origin) aggregation at 20 uM relative to control
# Sequence of Amyloid-beta precursor protein (Homo sapiens) (P05067 whole entry): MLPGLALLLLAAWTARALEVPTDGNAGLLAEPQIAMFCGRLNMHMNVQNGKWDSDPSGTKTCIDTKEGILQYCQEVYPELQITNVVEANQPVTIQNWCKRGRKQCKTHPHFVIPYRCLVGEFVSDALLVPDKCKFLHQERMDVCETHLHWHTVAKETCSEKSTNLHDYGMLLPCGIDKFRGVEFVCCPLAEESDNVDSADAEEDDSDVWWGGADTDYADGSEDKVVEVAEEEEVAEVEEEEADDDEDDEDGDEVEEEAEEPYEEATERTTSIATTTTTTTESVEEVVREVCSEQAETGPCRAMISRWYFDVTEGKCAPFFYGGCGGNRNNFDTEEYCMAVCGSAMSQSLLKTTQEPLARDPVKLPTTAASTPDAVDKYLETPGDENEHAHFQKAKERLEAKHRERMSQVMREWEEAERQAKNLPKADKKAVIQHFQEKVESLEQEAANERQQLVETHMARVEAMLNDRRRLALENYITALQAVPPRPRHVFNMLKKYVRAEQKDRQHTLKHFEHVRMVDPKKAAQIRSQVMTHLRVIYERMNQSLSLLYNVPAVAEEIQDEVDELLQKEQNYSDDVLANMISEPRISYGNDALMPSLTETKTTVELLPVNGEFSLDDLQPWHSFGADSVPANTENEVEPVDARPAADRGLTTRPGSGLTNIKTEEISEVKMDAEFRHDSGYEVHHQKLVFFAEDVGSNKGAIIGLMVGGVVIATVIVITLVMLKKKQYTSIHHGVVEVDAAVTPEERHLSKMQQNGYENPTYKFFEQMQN
# Sequence of Histone deacetylase 1 (Q13547 whole entry): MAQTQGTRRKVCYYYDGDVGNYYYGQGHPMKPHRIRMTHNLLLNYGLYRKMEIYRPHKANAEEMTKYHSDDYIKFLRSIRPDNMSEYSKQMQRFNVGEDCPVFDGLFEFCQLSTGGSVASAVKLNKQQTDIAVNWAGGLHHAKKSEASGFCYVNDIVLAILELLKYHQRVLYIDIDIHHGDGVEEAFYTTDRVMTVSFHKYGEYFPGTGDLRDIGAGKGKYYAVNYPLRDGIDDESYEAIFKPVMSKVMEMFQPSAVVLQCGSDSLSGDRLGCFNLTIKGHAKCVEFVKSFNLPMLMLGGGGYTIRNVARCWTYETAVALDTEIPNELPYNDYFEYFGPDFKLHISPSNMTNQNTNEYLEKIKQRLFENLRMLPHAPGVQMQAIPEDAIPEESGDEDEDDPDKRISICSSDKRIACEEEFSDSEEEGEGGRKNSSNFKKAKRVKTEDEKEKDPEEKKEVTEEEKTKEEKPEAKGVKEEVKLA
structure (smiles),measurement,setting,value
O=C(/C=C/c1ccc(N2CC(=O)N3C(Cc4c([nH]c5ccccc45)C3c3ccc4c(c3)OCO4)C2=O)cc1)NO (configuration not stated),IC50,[1],120 nM
same,IC50,Histone deacetylase 1,> 2500 nM
same,IC50,Histone deacetylase 2,> 2500 nM
same,IC50,[2],> 2500 nM
OC[C@@H]1Cc2c([nH]c3ccccc23)CN1Cc1cn(C[C@@H]2Cc3c([nH]c4ccccc34)CN2)nn1,IC50,Beta-secretase 1,17000 nM
O=C(CCCN1CCC(N2CC(=O)N3C(Cc4c([nH]c5ccccc45)C3c3ccc4c(c3)OCO4)C2=O)CC1)NO (configuration not stated),IC50,[1],140 nM
same,IC50,Histone deacetylase 1,> 2500 nM
same,IC50,Histone deacetylase 2,> 2500 nM
same,IC50,[2],> 2500 nM
COc1ccc(CC2NCCc3c2[nH]c2c(C)c(C)ccc32)c(Br)c1OC (configuration not stated),Ki,[3],9 nM
same,Ki,[4],8 nM
same,Ki,[5],0.08 nM
same,Kb,[6],0.08 nM
c1ccc2c(c1)[nH]c1cnc3c4cccnc4[nH]c3c12,Ki,[7],2 nM
same,Ki,[8],12 nM
same,Ki,[9],16 nM
same,Ki,[10],200 nM
same,Ki,[11],> 10000 nM
same,IC50,[12],2 nM
same,IC50,[13],12 nM
same,IC50,[14],16 nM
same,IC50,[15],200 nM
same,Ki,[16],> 10000 nM
Cc1ccc2[nH]c3c4[n+](ccc3c2c1)-c1ccccc1C4=O,inhibition,Cholinesterase [17],38%
CC1c2[nH]c3ccccc3c2CCN1C(=O)/C=C/c1ccc(O)c(O)c1 (configuration not stated),IC50,Acetylcholinesterase,21000 nM
same,IC50,Cholinesterase [18],1300 nM
same,inhibition,[19],72%
